Experiments:
oval-leafed pondweed [1] = assay: Test Example 1: herbicidal activity, application before weed generation under submerged conditions (Table 16, symbol C); assay type: in vivo, oval-leafed pondweed (Monochoria vaginalis); conditions: amount of applied herbicide 320 g/ha
Summary of the method: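 Emulsion formulation, water-diluted to set dose, was put onto the flooded surface (4 cm depth, alluvial soil) the same day weeds were sown and 2.5-leaf rice transplanted. After 3 weeks at 25-30 °C under glass, each species was rated 0 (≤5% kill) to 5 (≥90% kill).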

oval-leafed pondweed [2] = assay: Test Example 2: herbicidal activity, application during weed generation under submerged conditions (Table 17, symbol C); assay type: in vivo, oval-leafed pondweed (Monochoria vaginalis); conditions: AAH 320 g/ha; application during weed generation, submerged conditions
Summary of the method: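 Mixed weed seedlings in alluvial soil under a 4 cm water layer, greenhouse-grown at 25–30° C. Compound given as a diluted emulsion into the floodwater at the 1–2 leaf stage; response graded after three weeks.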

Chinese sprangletop = assay: Test Example 3: herbicidal effect by foliage application, Wagner pot (Table 18, symbol D); assay type: in vivo, chinese sprangletop (Leptochloa chinensis); conditions: for herbicidal effect on Chinese sprangletop (D): 320 g/ha; for herbicidal effect on D: Chinese sprangletop: amount of applied herbicide 320 g/ha
Summary of the method: (§1)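 Plants were sown in alluvial soil held under 0.1–0.5 cm standing water and grown 14 days in a greenhouse at 25–30 °C. An emulsifiable formulation, water-diluted to the set dose, was then sprayed onto the foliage, and effects were scored three weeks later using previously defined criteria.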

rice flat sedge = assay: Test Example 3: herbicidal effect by foliage application, Wagner pot (Table 18, symbol E); assay type: in vivo, rice flat sedge (Cyperus iria); conditions: for herbicidal effect on rice flat sedge (E): 320 g/ha; for herbicidal effect on E: rice flat sedge: amount of applied herbicide 320 g/ha
Summary of the method: as §1

southern crabgrass [3] = assay: Test Example 4: herbicidal effect by soil treatment (Table 19, symbol F); assay type: in vivo, southern crabgrass (Digitaria ciliaris); conditions: amount of applied herbicide 320 g/ha
Summary of the method: (§2)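 Seeds were sown in sterilized diluvial soil and covered with about 1.5 cm of soil. An emulsion formulation diluted with water to a predetermined herbicide amount was sprayed evenly onto the soil surface. Plants grew in a greenhouse at 25° C. to 30° C., and the effect was scored three weeks after application using criteria from an earlier test.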

windgrass [4] = assay: Test Example 4: herbicidal effect by soil treatment (Table 19, symbol L); assay type: in vivo, windgrass (Apera spica-venti); conditions: amount of applied herbicide 320 g/ha
Summary of the method: as §2

velvetleaf = assay: Test Example 4: herbicidal effect by soil treatment (Table 19, symbol M); assay type: in vivo, velvetleaf (Abutilon theophrasti); conditions: amount of applied herbicide 320 g/ha
Summary of the method: as §2

redroot pigweed = assay: Test Example 4: herbicidal effect by soil treatment (Table 19, symbol N); assay type: in vivo, redroot pigweed (Amaranthus retroflexus); conditions: amount of applied herbicide 320 g/ha
Summary of the method: as §2

lambsquarters [5] = assay: Test Example 4: herbicidal effect by soil treatment (Table 19, symbol O); assay type: in vivo, lambsquarters (Chenopodium album); conditions: amount of applied herbicide 320 g/ha
Summary of the method: as §2

false cleavers = assay: Test Example 4: herbicidal effect by soil treatment (Table 19, symbol Q); assay type: in vivo, false cleavers (Galium spurium); conditions: amount of applied herbicide 320 g/ha
Summary of the method: as §2

southern crabgrass [6] = assay: Test Example 5: herbicidal effect by foliage application, plastic box (Table 20, symbol F); assay type: in vivo, southern crabgrass (Digitaria ciliaris); conditions: for F: southern crabgrass, herbicidal effect grade: foliage application, three weeks after application
Summary of the method: (§3)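 Plants sown in sterilized diluvial soil and grown 14 days in a greenhouse at 25° C to 30° C, then sprayed on the foliage with the compound's emulsion diluted in water to a predetermined herbicide amount. Injury to weeds and crops scored three weeks after application on a visual rating scale.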

green foxtail = assay: Test Example 5: herbicidal effect by foliage application, plastic box (Table 20, symbol G); assay type: in vivo, green foxtail (Setaria viridis); conditions: for G: green foxtail, herbicidal effect grade: foliage application, three weeks after application
Summary of the method: as §3

barnyard grass = assay: Test Example 5: herbicidal effect by foliage application, plastic box (Table 20, symbol H); assay type: in vivo, barnyard grass (Echinochloa crus-galli); conditions: for H: barnyard grass, herbicidal effect grade: foliage application, three weeks after application
Summary of the method: as §3

windgrass [7] = assay: Test Example 5: herbicidal effect by foliage application, plastic box (Table 20, symbol L); assay type: in vivo, windgrass (Apera spica-venti); conditions: for L: windgrass, herbicidal effect grade: foliage application, three weeks after application
Summary of the method: as §3

lambsquarters [8] = assay: Test Example 5: herbicidal effect by foliage application, plastic box (Table 20, symbol O); assay type: in vivo, lambsquarters (Chenopodium album); conditions: for O: lambsquarters, herbicidal effect grade: foliage application, three weeks after application
Summary of the method: as §3

chickweed = assay: Test Example 5: herbicidal effect by foliage application, plastic box (Table 20, symbol P); assay type: in vivo, common chickweed (Stellaria media); conditions: for P: chickweed, herbicidal effect grade: foliage application, three weeks after application
Summary of the method: as §3

persian speedwell = assay: Test Example 5: herbicidal effect by foliage application, plastic box (Table 20, symbol R); assay type: in vivo, Persian speedwell (Veronica persica); conditions: for R: persian speedwell, herbicidal effect grade: foliage application, three weeks after application
Summary of the method: as §3

[9] = 320 g/ha, foliage application after 14-day growth, evaluated three weeks after application
[10] = amount of applied herbicide 320 g/ha, foliage application after 14-day growth, evaluated three weeks after application

Cc1nn(C)c(=O)c(-c2c(-c3ccc(Cl)c(F)c3)sc3c(F)cccc23)c1O [4-054]
Herbicidal effect, C: oval-leafed pondweed (oval-leafed pondweed [1]): 0 (Herbicidal rate of 5% or less (almost no effect))
herbicidal effect rating, C: oval-leafed pondweed (oval-leafed pondweed [2]): 0 (Herbicidal rate of 5% or less (almost no effect))
herbicidal effect on Chinese sprangletop (D) (Chinese sprangletop): 0 (Herbicidal rate of 5% or less (almost no effect))
herbicidal effect on rice flat sedge (E) (rice flat sedge): 0 (Herbicidal rate of 5% or less (almost no effect))
Herbicidal effect by soil treatment, F: southern crabgrass (southern crabgrass [3]): 0 (Herbicidal rate of 5% or less (almost no effect))
Herbicidal effect by soil treatment, L: windgrass (windgrass [4]): 0 (Herbicidal rate of 5% or less (almost no effect))
Herbicidal effect by soil treatment, M: velvetleaf (velvetleaf): 0 (Herbicidal rate of 5% or less (almost no effect))
Herbicidal effect by soil treatment, N: redroot pigweed (redroot pigweed): 2 (Herbicidal rate of 20% or more and less than 40%)
Herbicidal effect by soil treatment, O: lambsquarters (lambsquarters [5]): 1 (Herbicidal rate of 5% or more and less than 20%)
Herbicidal effect by soil treatment, Q: false cleavers (false cleavers): 0 (Herbicidal rate of 5% or less (almost no effect))
herbicidal effect on F: southern crabgrass (evaluation grade 0-5) (southern crabgrass [6]; [9]): 2 (Herbicidal rate of 20% or more and less than 40%)
herbicidal effect on G: green foxtail (evaluation grade 0-5) (green foxtail; [9]): 3 (Herbicidal rate of 40% or more and less than 70%)
herbicidal effect on H: barnyard grass (evaluation grade 0-5) (barnyard grass; [9]): 4 (Herbicidal rate of 70% or more and less than 90%)
herbicidal effect on L: windgrass (evaluation grade 0-5) (windgrass [7]; [9]): 0 (Herbicidal rate of 5% or less (almost no effect))
herbicidal effect on O: lambsquarters (evaluation grade 0-5) (lambsquarters [8]; [9]): 3 (Herbicidal rate of 40% or more and less than 70%)
herbicidal effect on P: chickweed (evaluation grade 0-5) (chickweed; [9]): 5 (Herbicidal rate of 90% or more (almost completely withered))
herbicidal effect on R: persian speedwell (evaluation grade 0-5) (persian speedwell; [9]): 5 (Herbicidal rate of 90% or more (almost completely withered))

CCOc1ccccc1-c1sc2cc(F)ccc2c1-c1c(O)c(C)nn(C)c1=O [3-006]
Herbicidal effect, C: oval-leafed pondweed (oval-leafed pondweed [1]): 4 (Herbicidal rate of 70% or more and less than 90%)
herbicidal effect rating, C: oval-leafed pondweed (oval-leafed pondweed [2]): 5 (Herbicidal rate of 90% or more (almost completely withered))
herbicidal effect on D: Chinese sprangletop (Chinese sprangletop): 4 (Herbicidal rate of 70% or more and less than 90%)
herbicidal effect on E: rice flat sedge (rice flat sedge): 5 (Herbicidal rate of 90% or more (almost completely withered))
herbicidal effect, F: southern crabgrass (southern crabgrass [3]): 5 (Herbicidal rate of 90% or more (almost completely withered))
herbicidal effect, L: windgrass (windgrass [4]): 5 (Herbicidal rate of 90% or more (almost completely withered))
herbicidal effect, M: velvetleaf (velvetleaf): 4 (Herbicidal rate of 70% or more and less than 90%)
herbicidal effect, N: redroot pigweed (redroot pigweed): 5 (Herbicidal rate of 90% or more (almost completely withered))
herbicidal effect, O: lambsquarters (lambsquarters [5]): 5 (Herbicidal rate of 90% or more (almost completely withered))
herbicidal effect, Q: false cleavers (false cleavers): 5 (Herbicidal rate of 90% or more (almost completely withered))
F: southern crabgrass, herbicidal effect grade (southern crabgrass [6]; 320 g/ha): 5 (Herbicidal rate of 90% or more (almost completely withered))
G: green foxtail, herbicidal effect grade (green foxtail; 320 g/ha): 5 (Herbicidal rate of 90% or more (almost completely withered))
H: barnyard grass, herbicidal effect grade (barnyard grass; 320 g/ha): 5 (Herbicidal rate of 90% or more (almost completely withered))
L: windgrass, herbicidal effect grade (windgrass [7]; 320 g/ha): 5 (Herbicidal rate of 90% or more (almost completely withered))
O: lambsquarters, herbicidal effect grade (lambsquarters [8]; 320 g/ha): 4 (Herbicidal rate of 70% or more and less than 90%)
P: chickweed, herbicidal effect grade (chickweed; 320 g/ha): 5 (Herbicidal rate of 90% or more (almost completely withered))
R: persian speedwell, herbicidal effect grade (persian speedwell; 320 g/ha): 5 (Herbicidal rate of 90% or more (almost completely withered))

Cc1nn(C)c(=O)c(-c2c(-c3ccc(Cl)cc3)sc3c(C)cccc23)c1O [4-102]
Herbicidal effect, C: oval-leafed pondweed (oval-leafed pondweed [1]): 0 (Herbicidal rate of 5% or less (almost no effect))
herbicidal effect rating, C: oval-leafed pondweed (oval-leafed pondweed [2]): 0 (Herbicidal rate of 5% or less (almost no effect))
herbicidal effect on Chinese sprangletop (D) (Chinese sprangletop): 3 (Herbicidal rate of 40% or more and less than 70%)
herbicidal effect on rice flat sedge (E) (rice flat sedge): 5 (Herbicidal rate of 90% or more (almost completely withered))
Herbicidal effect by soil treatment, F: southern crabgrass (southern crabgrass [3]): 0 (Herbicidal rate of 5% or less (almost no effect))
Herbicidal effect by soil treatment, L: windgrass (windgrass [4]): 0 (Herbicidal rate of 5% or less (almost no effect))
Herbicidal effect by soil treatment, M: velvetleaf (velvetleaf): 2 (Herbicidal rate of 20% or more and less than 40%)
Herbicidal effect by soil treatment, N: redroot pigweed (redroot pigweed): 4 (Herbicidal rate of 70% or more and less than 90%)
Herbicidal effect by soil treatment, O: lambsquarters (lambsquarters [5]): 3 (Herbicidal rate of 40% or more and less than 70%)
Herbicidal effect by soil treatment, Q: false cleavers (false cleavers): 0 (Herbicidal rate of 5% or less (almost no effect))
Herbicidal effect by foliage application, F: southern crabgrass (southern crabgrass [6]; [10]): 0 (Herbicidal rate of 5% or less (almost no effect))
Herbicidal effect by foliage application, G: green foxtail (green foxtail; [10]): 0 (Herbicidal rate of 5% or less (almost no effect))
Herbicidal effect by foliage application, H: barnyard grass (barnyard grass; [10]): 0 (Herbicidal rate of 5% or less (almost no effect))
Herbicidal effect by foliage application, L: windgrass (windgrass [7]; [10]): 0 (Herbicidal rate of 5% or less (almost no effect))
Herbicidal effect by foliage application, O: lambsquarters (lambsquarters [8]; [10]): 4 (Herbicidal rate of 70% or more and less than 90%)
Herbicidal effect by foliage application, P: chickweed (chickweed; [10]): 5 (Herbicidal rate of 90% or more (almost completely withered))
Herbicidal effect by foliage application, R: persian speedwell (persian speedwell; [10]): 5 (Herbicidal rate of 90% or more (almost completely withered))

CCCC(=O)Oc1c(C)nn(C)c(=O)c1-c1c(-c2ccc3c(c2)OCCO3)sc2cc(F)ccc12 [3-014]
Herbicidal effect, C: oval-leafed pondweed (oval-leafed pondweed [1]): 5 (Herbicidal rate of 90% or more (almost completely withered))
herbicidal effect rating, C: oval-leafed pondweed (oval-leafed pondweed [2]): 5 (Herbicidal rate of 90% or more (almost completely withered))
herbicidal effect on D: Chinese sprangletop (Chinese sprangletop): 0 (Herbicidal rate of 5% or less (almost no effect))
herbicidal effect on E: rice flat sedge (rice flat sedge): 4 (Herbicidal rate of 70% or more and less than 90%)
herbicidal effect, F: southern crabgrass (southern crabgrass [3]): 0 (Herbicidal rate of 5% or less (almost no effect))
herbicidal effect, L: windgrass (windgrass [4]): 0 (Herbicidal rate of 5% or less (almost no effect))
herbicidal effect, M: velvetleaf (velvetleaf): 0 (Herbicidal rate of 5% or less (almost no effect))
herbicidal effect, N: redroot pigweed (redroot pigweed): 3 (Herbicidal rate of 40% or more and less than 70%)
herbicidal effect, O: lambsquarters (lambsquarters [5]): 4 (Herbicidal rate of 70% or more and less than 90%)
herbicidal effect, Q: false cleavers (false cleavers): 2 (Herbicidal rate of 20% or more and less than 40%)
F: southern crabgrass, herbicidal effect grade (southern crabgrass [6]; 320 g/ha): 3 (Herbicidal rate of 40% or more and less than 70%)
G: green foxtail, herbicidal effect grade (green foxtail; 320 g/ha): 3 (Herbicidal rate of 40% or more and less than 70%)
H: barnyard grass, herbicidal effect grade (barnyard grass; 320 g/ha): 3 (Herbicidal rate of 40% or more and less than 70%)
L: windgrass, herbicidal effect grade (windgrass [7]; 320 g/ha): 0 (Herbicidal rate of 5% or less (almost no effect))
O: lambsquarters, herbicidal effect grade (lambsquarters [8]; 320 g/ha): 5 (Herbicidal rate of 90% or more (almost completely withered))
P: chickweed, herbicidal effect grade (chickweed; 320 g/ha): 5 (Herbicidal rate of 90% or more (almost completely withered))
R: persian speedwell, herbicidal effect grade (persian speedwell; 320 g/ha): 5 (Herbicidal rate of 90% or more (almost completely withered))

From patent publication US20230085307A1, “PYRIDAZINONE COMPOUND AND HERBICIDE” (NISSAN CHEMICAL CORPORATION, priority 2019, published 2023)
